Measurements reported in paper PMC4301037, “Identification and Structure–Function Analysis of Subfamily Selective G Protein-Coupled Receptor Kinase Inhibitors” (ACS Chemical Biology, 2014).
Read-outs that look alike come from different tables or passages of the source.

How the values were obtained:
protein kinase A (PKA) = target: T1, protein kinase A (PKA) (Mus musculus, UniProt P05132); test: DSF retest (confirmation), PKA; type: binding; conditions: for PKA Tm: 0.2 mg mL^–1 kinase; for PKA ΔTm: relative to intrinsic melting point of the kinase
T1 construct: His tag (inferred from pET15b vector and Ni-NTA column) (N); host or cells: E. coli Rosetta(DE3)pLysS
Method: Fourteen compounds (Figure 1a–c), including all GRK2 hits except staurosporine, and the most stabilizing pyrrolopyrimidine-containing compounds were obtained from GSK and retested using DSF on GRKs representing each vertebrate subfamily (GRK1, 2, and 5) (Table 1). […] The ability of these compounds to shift the Tm of the related AGC family kinase member protein kinase A (PKA) was also assessed (Table 1). In no case was ΔTm greater for PKA than for one of the tested GRKs. […]. There was no correlation for GRK1 (Figure 2c).
DSF was conducted using a ThermoFluor plate reader (Johnson & Johnson) in a buffer containing 20 mM HEPES, pH 7.0, 5 mM MgCl2, 2 mM DTT, and 1 mM CHAPS with 0.2 mg mL^–1 final concentration of GRK or PKA and 100 μM 1-anilinonaphthalene-8-sulfonic acid.[14]

PKA = target: T2, PKA (Mus musculus, UniProt P05132); test: PKA inhibition assay (ADP-Glo, CREBtide, 100 μM ATP); type: biochemical; conditions: logarithm of IC50 (−3.3 corresponds to 0.5 mM, footnote c); 438 nM PKA, 100 μM ATP, CREBtide; read-out: PKA log IC50 (converted)
T2 construct: His tag (inferred from pET15b vector and Ni-NTA column) (N); host or cells: E. coli Rosetta(DE3)pLysS

GRK1, 2, and 5 and PKA = test: Ssel selectivity score calculated from inhibition of GRK1, 2, 5 and PKA
bovine GRK5 = target: T3, bovine GRK5 (Bos taurus, UniProt P43249); test: Primary DSF inhibitor screen, GRK5; type: binding; conditions: 10 μM compound; for ΔTm, primary screen, GRK5 / ΔTm at 10 µM: 2 μM kinase, relative to DMSO control; for ΔTm at 10 µM: read-out: ΔTm, primary screen, GRK5; for rank in the primary screen, GRK5: rank ordering of compounds in primary DSF screen
T3 construct: when using full-length kinases as the receptor[37] instead of isolated kinase domains; made in house
T3 sequence (P43249 whole entry, the tested form may be a part): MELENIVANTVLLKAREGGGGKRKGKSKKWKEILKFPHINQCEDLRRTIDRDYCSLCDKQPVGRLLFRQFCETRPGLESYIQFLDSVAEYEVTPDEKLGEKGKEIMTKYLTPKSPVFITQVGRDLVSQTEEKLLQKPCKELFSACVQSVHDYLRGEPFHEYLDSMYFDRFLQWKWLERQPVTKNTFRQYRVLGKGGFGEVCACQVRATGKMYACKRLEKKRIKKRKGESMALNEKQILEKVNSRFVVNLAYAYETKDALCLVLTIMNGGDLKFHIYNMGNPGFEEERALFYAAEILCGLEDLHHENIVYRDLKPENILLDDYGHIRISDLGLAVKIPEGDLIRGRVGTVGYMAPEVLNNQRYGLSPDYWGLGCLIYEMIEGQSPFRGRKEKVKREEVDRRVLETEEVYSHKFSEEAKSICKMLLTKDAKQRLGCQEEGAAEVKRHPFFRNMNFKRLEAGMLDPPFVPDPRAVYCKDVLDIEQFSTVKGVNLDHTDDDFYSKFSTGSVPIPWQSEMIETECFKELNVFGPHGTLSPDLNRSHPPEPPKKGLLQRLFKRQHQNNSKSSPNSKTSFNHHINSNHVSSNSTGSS

GRK2 [1] = target: T4, GRK2 (Homo sapiens, UniProt P25098, S670A); test: DSF retest (confirmation), GRK2; type: binding; conditions: for GRK2 Tm: 0.2 mg mL^–1 kinase; for GRK2 ΔTm: relative to intrinsic melting point of the kinase
T4 construct: made in house
T4 sequence (P25098 1-689 S670A): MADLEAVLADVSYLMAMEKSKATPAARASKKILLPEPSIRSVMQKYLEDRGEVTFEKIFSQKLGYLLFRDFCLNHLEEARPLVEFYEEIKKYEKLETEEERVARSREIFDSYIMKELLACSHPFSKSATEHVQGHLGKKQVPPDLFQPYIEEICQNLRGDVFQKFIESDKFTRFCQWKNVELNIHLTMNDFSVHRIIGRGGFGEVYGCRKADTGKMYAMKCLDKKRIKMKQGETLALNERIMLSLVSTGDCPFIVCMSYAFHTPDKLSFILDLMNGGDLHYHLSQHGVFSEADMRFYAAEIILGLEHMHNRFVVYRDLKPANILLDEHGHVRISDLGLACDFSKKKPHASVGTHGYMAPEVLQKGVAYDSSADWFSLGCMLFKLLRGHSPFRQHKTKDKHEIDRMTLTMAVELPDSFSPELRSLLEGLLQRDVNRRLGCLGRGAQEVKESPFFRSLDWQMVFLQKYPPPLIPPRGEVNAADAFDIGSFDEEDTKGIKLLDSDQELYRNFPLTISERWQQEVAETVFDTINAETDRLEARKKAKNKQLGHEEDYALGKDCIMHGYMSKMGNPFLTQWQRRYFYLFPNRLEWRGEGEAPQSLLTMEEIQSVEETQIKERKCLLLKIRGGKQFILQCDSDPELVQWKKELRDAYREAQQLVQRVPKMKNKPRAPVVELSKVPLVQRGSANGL

GRK5 [2] = target: T5, GRK5 (Bos taurus, UniProt P43249); test: DSF retest (confirmation), GRK5; type: binding, bovine; conditions: for GRK5 Tm: 0.2 mg mL^–1 kinase; for GRK5 ΔTm: relative to intrinsic melting point of the kinase
T5 construct: when using full-length kinases as the receptor[37] instead of isolated kinase domains; made in house
T5 sequence (P43249 whole entry, the tested form may be a part): as the sequence (P43249 whole entry, the tested form may be a part) above

GRK2 [3] = target: T6, GRK2 (Bos taurus, UniProt P21146, S670A); test: In vitro phosphorylation assay (tubulin, 5 μM ATP), GRK2; type: biochemical, bovine; conditions: for IC50: read-out: GRK2 log IC50 (converted)
T6 construct: made in house
T6 sequence (P21146 1-689 S670A): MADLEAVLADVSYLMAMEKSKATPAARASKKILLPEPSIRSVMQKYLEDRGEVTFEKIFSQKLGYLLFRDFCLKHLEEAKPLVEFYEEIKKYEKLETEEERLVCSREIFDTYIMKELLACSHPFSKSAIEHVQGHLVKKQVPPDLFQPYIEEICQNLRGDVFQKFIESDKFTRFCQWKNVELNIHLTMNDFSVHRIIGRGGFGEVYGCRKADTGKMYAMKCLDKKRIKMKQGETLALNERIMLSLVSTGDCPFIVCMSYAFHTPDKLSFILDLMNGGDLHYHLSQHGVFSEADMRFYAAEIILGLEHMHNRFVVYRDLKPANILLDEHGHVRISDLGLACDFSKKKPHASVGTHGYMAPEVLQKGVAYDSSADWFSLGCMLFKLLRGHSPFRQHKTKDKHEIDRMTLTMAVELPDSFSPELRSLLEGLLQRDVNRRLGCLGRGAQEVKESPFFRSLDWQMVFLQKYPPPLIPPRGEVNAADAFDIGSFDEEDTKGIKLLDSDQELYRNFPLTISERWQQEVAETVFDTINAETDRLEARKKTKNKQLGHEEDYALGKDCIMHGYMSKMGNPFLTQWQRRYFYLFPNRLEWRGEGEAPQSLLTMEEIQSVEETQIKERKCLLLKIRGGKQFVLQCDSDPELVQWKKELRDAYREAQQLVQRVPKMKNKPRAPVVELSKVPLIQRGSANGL

GRK5 [4] = target: T5, GRK5; test: In vitro phosphorylation assay (tubulin, 5 μM ATP), GRK5; type: biochemical, bovine; conditions: for IC50: read-out: GRK5 log IC50 (converted)
GRK1 [5] = target: T7, GRK1 (Bos taurus, UniProt P28327); test: DSF retest (confirmation), GRK1; type: binding, bovine; conditions: for GRK1 Tm: 0.2 mg mL^–1 kinase; for GRK1 ΔTm: relative to intrinsic melting point of the kinase
T7 construct: Bovine GRK1_1–535, bovine and human GRK2S670A; made in house
T7 sequence (P28327 1-535): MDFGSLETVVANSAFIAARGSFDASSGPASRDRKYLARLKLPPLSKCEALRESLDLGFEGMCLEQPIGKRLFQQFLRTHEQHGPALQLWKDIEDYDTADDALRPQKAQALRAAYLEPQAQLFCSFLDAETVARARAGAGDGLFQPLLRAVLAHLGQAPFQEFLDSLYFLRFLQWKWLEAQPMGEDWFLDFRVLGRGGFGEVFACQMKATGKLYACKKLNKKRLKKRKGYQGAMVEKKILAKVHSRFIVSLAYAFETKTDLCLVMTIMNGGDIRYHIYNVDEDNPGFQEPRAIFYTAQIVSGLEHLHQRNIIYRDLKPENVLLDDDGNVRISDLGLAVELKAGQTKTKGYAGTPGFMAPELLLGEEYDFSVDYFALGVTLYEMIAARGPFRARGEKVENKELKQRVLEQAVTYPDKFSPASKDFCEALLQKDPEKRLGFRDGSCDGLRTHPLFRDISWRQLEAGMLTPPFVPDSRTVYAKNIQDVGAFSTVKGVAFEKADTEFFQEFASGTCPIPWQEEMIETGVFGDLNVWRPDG

GRK1 [6] = target: T7, GRK1; test: In vitro phosphorylation assay (tubulin, 5 μM ATP), GRK1; type: biochemical, bovine; conditions: for IC50: read-out: GRK1 log IC50 (converted)
human GRK2S670A = target: T8, human GRK2S670A (Homo sapiens, UniProt P25098, S670A); test: Primary DSF (differential scanning fluorimetry) inhibitor screen, GRK2; type: binding
T8 construct: when using full-length kinases as the receptor[37] instead of isolated kinase domains; made in house
T8 sequence (P25098 1-689 S670A): T4 sequence (P25098 1-689 S670A)

[7] = selectivity score from inhibition of GRK1, 2, 5 and PKA, <0.5 selective

| Compound | PKA Tm (protein kinase A (PKA)) | PKA ΔTm (protein kinase A (PKA)) | IC50 (PKA) | ΔTm, primary screen, GRK5 (bovine GRK5) | ΔTm at 10 µM (bovine GRK5) | rank in the primary screen, GRK5 (bovine GRK5) | GRK2 Tm (GRK2 [1]) | GRK2 ΔTm (GRK2 [1]) | GRK5 Tm (GRK5 [2]) | GRK5 ΔTm (GRK5 [2]) | IC50 (GRK2 [3]) | IC50 (GRK5 [4]) | GRK1 Tm (GRK1 [5]) | GRK1 ΔTm (GRK1 [5]) | IC50 (GRK1 [6]) | Ssel (GRK1, 2, and 5 and PKA; [7]) | further results |
| --- | --- | --- | --- | --- | --- | --- | --- | --- | --- | --- | --- | --- | --- | --- | --- | --- | --- |
| Fc1ccc([C@@H]2CCNC[C@H]2COc2ccc3c(c2)OCO3)cc1 [paroxetine] | 50.1 °C | 4.7 °C | > 501 µM |  |  |  |  |  |  |  |  |  |  |  |  |  | Ssel (GRK1, 2, and 5 and PKA): 0.085 |
| CN[C@@H]1C[C@H]2O[C@@](C)([C@@H]1OC)n1c3ccccc3c3c4c(c5c6ccccc6n2c5c31)C(=O)NC4 [Staurosporine] |  |  |  | 12 °C | 11.9 °C |  |  |  |  |  |  |  |  |  |  |  | ΔTm, primary screen, GRK2 (human GRK2S670A; 10 μM compound, 2 μM kinase, relative to DMSO control): 5.4 °C; ΔTm at 10 µM (human GRK2S670A; read-out: ΔTm, primary screen, GRK2, 10 μM compound, 2 μM kinase, relative to DMSO control): 5.37 °C |
| CC1=C(C(=O)Nc2ccc3[nH]ncc3c2)C(c2ccc(F)cc2)NC(=O)N1 (centres unmarked) [GSK180736A] | 49.2 °C | 3.8 °C |  |  |  |  |  |  |  |  |  |  | 25.3 °C | 5.4 °C | > 1000 µM | 0.022 |  |
| Cc1cncc2cccc(S(=O)(=O)N3CCCNC[C@@H]3C)c12 [H-1152, (S)-(+)-2-Methyl-1-[(4-methyl-5-isoquinolinyl)sulfonyl]homopiperazine] |  |  |  | 5.95 °C |  |  |  |  |  |  |  |  |  |  |  |  |  |
| c1ccc(COc2ccc(Nc3ncnc4ccc(-c5ccco5)cc34)cc2)cc1 [GW284372X] |  |  |  |  | 3.6 °C |  |  |  |  |  |  |  |  |  |  |  |  |

More lines, main results first:

| PKA Tm (protein kinase A (PKA)) | PKA ΔTm (protein kinase A (PKA)) | IC50 (PKA) | ΔTm, primary screen, GRK5 (bovine GRK5) | ΔTm at 10 µM (bovine GRK5) | rank in the primary screen, GRK5 (bovine GRK5) | GRK2 Tm (GRK2 [1]) | GRK2 ΔTm (GRK2 [1]) | GRK5 Tm (GRK5 [2]) | GRK5 ΔTm (GRK5 [2]) | IC50 (GRK2 [3]) | IC50 (GRK5 [4]) | GRK1 Tm (GRK1 [5]) | GRK1 ΔTm (GRK1 [5]) | IC50 (GRK1 [6]) | Compound | Ssel (GRK1, 2, and 5 and PKA; [7]) | further results |
| --- | --- | --- | --- | --- | --- | --- | --- | --- | --- | --- | --- | --- | --- | --- | --- | --- | --- |
| 45.8 °C | 0.4 °C | > 501 µM | 7.4 °C | 7.37 °C | 11 | 44.2 °C | 6.7 °C | 40.3 °C | 13.6 °C | 6.31 µM | 3.16 µM |  |  |  | CCCN1CCC(Oc2cc(Nc3nc(Nc4cccc(F)c4C(N)=O)c4cc[nH]c4n3)c(OC)cc2Cl)CC1 [GSK1713088A] |  |  |
| 48.5 °C | 3.1 °C | > 501 µM | 9.2 °C | 9.25 °C | 4 |  |  | 33.0 °C | 6.3 °C |  |  | 26.3 °C | 6.4 °C | 0.126 µM | COc1cc2c(cc1Nc1nc(Nc3ccsc3C(N)=O)c3cc[nH]c3n1)N(C(=O)CN(C)C)CCC2(C)C [GSK2163632A] | 0.199 |  |
| 46.6 °C | 1.2 °C | > 501 µM | 8.3 °C | 8.36 °C | 7 | 40.6 °C | 3.0 °C | 32.6 °C | 5.8 °C | 20 µM | 3.16 µM | 18.5 °C | –1.4 °C | 0.631 µM | COc1cc2c(cc1Nc1nc(Nc3ccsc3C(N)=O)c3cc[nH]c3n1)N(C(=O)CN(C)C)CCC2 [GSK2110236A] | 0.561 | GRK1 fold (increase in potency relative to paroxetine) (GRK1 [6]): 631 fold; GRK2 fold (increase in potency relative to paroxetine) (GRK2 [3]): 0.063 fold; selectivity for GRK5 over GRK2 (GRK5 [4]; from IC50 values of Table 2): 6 fold; GRK5 fold (increase in potency relative to paroxetine) (GRK5 [4]): 40 fold |
| 45.4 °C | 0.0 °C | > 501 µM | 6.9 °C | 6.87 °C | 13 | 38.8 °C | 1.2 °C | 30.5 °C | 3.8 °C | 200 µM | 6.31 µM | 28.6 °C | 8.7 °C | 10 µM | CNC(=O)c1ncccc1Nc1nc(Nc2cc3c(cc2OC)CCCN3C(=O)CN(C)C)nc2[nH]ccc12 [GSK2220400A] | 0.770 | lower potency against GRK1 (GRK1 [6]; relative to GSK2163632A): 100 fold; GRK1 fold (increase in potency relative to paroxetine) (GRK1 [6]): 40 fold; GRK2 fold (increase in potency relative to paroxetine) (GRK2 [3]): 0.0063 fold; GRK5 fold (increase in potency relative to paroxetine) (GRK5 [4]): 20 fold |
